Results as given in patent publication US4581352A, “Thienothienylglycyl cephalosporin derivatives” (priority 1984, dated 1986).
Converted amounts (≈) assume the structure as drawn. Where two headings read alike, the source gives them in different places.

Assays:
Format in all cases: cell-based
Strep. A = test: in vitro agar dilution assay (MIC), Strep. A; details: read-out: Agar Dilution MIC
Description: (§1) A typical and preferred compound provided by this invention is 7-(thieno[3,2-b]thien-2-yl)glycylamido-3-methyl-3-cephem-4-carboxylic acid, the compound illustrated in Example 1. The antibacterial activity of this compound and others of the invention has been determined in standard in vitro agar dilution assays against a variety of gram positive microorganisms. The following Tables present typical minimum inhibitory concentrations (MIC's) in μg/ml for several compounds of the invention when evaluated against the indicated microorganisms. MIC's for several known compounds are also presented for comparison.

Staph. epi = test: in vitro agar dilution assay (MIC), Staph. epi; details: read-out: Agar Dilution MIC
Strep. D = test: in vitro agar dilution assay (MIC), Strep. D; details: for MIC: read-out: Agar Dilution MIC
Description: as §1

Staph. aureus = test: in vitro agar dilution assay (MIC), Staph. aureus; details: Staphylococcus aureus
Klebsiella = test: in vitro agar dilution assay (MIC), Klebsiella
E. coli = test: in vitro agar dilution assay (MIC), E. coli; details: Escherichia coli
H. influ. = test: in vitro agar dilution assay (MIC), H. influ.
Strep. PN = test: in vitro agar dilution assay (MIC), Strep. PN; details: read-out: Agar Dilution MIC
Description: as §1

[1] = Staph. aureus strain X400, read-out: Agar Dilution MIC
[2] = read-out: Agar Dilution MIC, Staph. aureus strain S13E
[3] = Staph. aureus strain X1.1, read-out: Agar Dilution MIC
[4] = Klebsiella strain KAE, read-out: Agar Dilution MIC
[5] = Klebsiella strain X26, read-out: Agar Dilution MIC
[6] = Klebsiella strain X68, read-out: Agar Dilution MIC
[7] = Staph. aureus strain V41, read-out: Agar Dilution MIC

Row | SMILES | MIC (Strep. A; Strep. A strain C203) [µg/mL] | MIC (Staph. epi; Staph. epi strain 222) [µg/mL] | MIC (Staph. epi; Staph. epi strain EPI1) [µg/mL] | MIC (Strep. D; Strep. D strain 2041) [µg/mL] | MIC (Strep. D; Strep. D strain X66) [µg/mL] | MIC (Staph. aureus; [1]) [µg/mL] | MIC (Staph. aureus; read-out: Agar Dilution MIC) [µg/mL] | MIC (Staph. aureus; [2]) [µg/mL] | MIC (Staph. aureus; [3]) [µg/mL] | MIC (Klebsiella; [4]) [µg/mL] | MIC (Klebsiella; [5]) [µg/mL] | MIC (Klebsiella; [6]) [µg/mL] | MIC (E. coli; E. coli strain EC14) [µg/mL] | MIC (E. coli; E. coli strain N10) [µg/mL] | MIC (E. coli; E. coli strain TEM) [µg/mL] | MIC (H. influ.; H. influ. strain C.L.) [µg/mL] | MIC (Strep. PN; Strep. PN strain PARK) [µg/mL] | MIC (Staph. aureus; [7]) [µg/mL] | MIC (H. influ.; H. influ. strain 76) [µg/mL] | also measured
1 | CC1=C(C(=O)O)N2C(=O)[C@@H](NC(=O)[C@@H](N)c3cc4sccc4s3)[C@H]2SC1 [Ex. 1B, 7-L-(thieno[3,2-b]thien-2-yl)-glycylamido-3-methyl-3-cephem-4-carboxylic acid] | 16 (≈ 39.1 µM) | 16 (≈ 39.1 µM) | 64 (≈ 156 µM) | > 64 | > 64 | > 64 | 32 (≈ 78.1 µM) | 64 (≈ 156 µM) | 8 (≈ 19.5 µM) | > 64 | > 64 | > 64 | > 64 | > 64 | > 64 | 64 (≈ 156 µM) | 16 (≈ 39.1 µM) | – | – | –
2 | CC1=C(C(=O)O)N2C(=O)[C@@H](NC(=O)[C@H](N)c3ccccc3)[C@H]2SC1 [Cephalexin, reference compound] | – | – | 32 (≈ 92.1 µM) | – | – | – | – | 128 (≈ 368 µM) | – | – | – | – | 4 (≈ 11.5 µM) | 8 (≈ 23 µM) | 8 (≈ 23 µM) | – | – | – | – | MIC (Strep. A): 0.5 µg/mL (≈ 1.44 µM); MIC (Staph. epi): 8 µg/mL (≈ 23 µM); Agar Dilution MIC (Strep. D; Strep. D strain 2041): 128 µg/mL; MIC (Strep. D): 128 µg/mL (≈ 368 µM); MIC (Klebsiella; read-out: Agar Dilution MIC, Klebsiella strain KAE): 128 µg/mL (≈ 368 µM); MIC (Klebsiella; read-out: Agar Dilution MIC, Klebsiella strain X26): 4 µg/mL (≈ 11.5 µM); MIC (Klebsiella; read-out: Agar Dilution MIC, Klebsiella strain X68): 8 µg/mL (≈ 23 µM); MIC (Strep. PN): 2 µg/mL (≈ 5.76 µM)
3 | CC1=C(C(=O)O)N2C(=O)[C@@H](NC(=O)[C@H](N)c3cc4sc(Cl)cc4s3)[C@H]2SC1 [Ex. 2B, 7-D-(5-chlorothieno[3,2-b]thien-2-yl)glycylamido-3-methyl-3-cephem-4-carboxylic acid] | 0.125 (≈ 0.282 µM) | 0.5 (≈ 1.13 µM) | 4 (≈ 9.01 µM) | 64 (≈ 144 µM) | > 64 | > 64 | – | – | 0.25 (≈ 0.563 µM) | > 64 | 16 (≈ 36 µM) | > 64 | > 64 | > 64 | > 64 | 32 (≈ 72.1 µM) | 0.25 (≈ 0.563 µM) | 16 (≈ 36 µM) | 2 (≈ 4.5 µM) | –
4 | CC1=C(C(=O)O)N2C(=O)[C@@H](NC(=O)[C@@H](N)c3cc4ccsc4s3)[C@H]2SC1 [Ex. 3B, 7-L-(thieno[2,3-b]thien-2-yl)-glycylamido-3-methyl-3-cephem-4-carboxylic acid] | 1 (≈ 2.44 µM) | 2 (≈ 4.88 µM) | 8 (≈ 19.5 µM) | > 64 | > 64 | > 64 | – | 64 (≈ 156 µM) | 1 (≈ 2.44 µM) | > 64 | 16 (≈ 39.1 µM) | > 64 | > 64 | > 64 | > 64 | 16 (≈ 39.1 µM) | 2 (≈ 4.88 µM) | 64 (≈ 156 µM) | 1 (≈ 2.44 µM) | –
5 | CC1=C(C(=O)O)N2C(=O)[C@@H](NC(=O)[C@@H](N)c3cc4sc(Cl)cc4s3)[C@H]2SC1 [Ex. 2A, 7-L-(5-chlorothieno[3,2-b]thien-2-yl)glycylamido-3-methyl-3-cephem-4-carboxylic acid] | 1 (≈ 2.25 µM) | 2 (≈ 4.5 µM) | 16 (≈ 36 µM) | > 64 | > 64 | > 64 | – | 32 (≈ 72.1 µM) | 1 (≈ 2.25 µM) | > 64 | 64 (≈ 144 µM) | > 64 | > 64 | > 64 | > 64 | 64 (≈ 144 µM) | 2 (≈ 4.5 µM) | 64 (≈ 144 µM) | 2 (≈ 4.5 µM) | –
6 | CC1=C(C(=O)O)N2C(=O)[C@@H](NC(=O)[C@H](N)c3cc4ccsc4s3)[C@H]2SC1 [Ex. 3A, 7-D-(thieno[2,3-b]thien-2-yl)-glycylamido-3-methyl-3-cephem-4-carboxylic acid] | 0.25 (≈ 0.61 µM) | 1 (≈ 2.44 µM) | 4 (≈ 9.77 µM) | > 64 | > 64 | > 64 | 32 (≈ 78.1 µM) | 16 (≈ 39.1 µM) | 0.5 (≈ 1.22 µM) | > 64 | 8 (≈ 19.5 µM) | > 64 | 64 (≈ 156 µM) | > 64 | > 64 | – | 0.5 (≈ 1.22 µM) | – | 2 (≈ 4.88 µM) | –
7 | CC1(C)S[C@@H]2[C@H](NC(=O)[C@H](N)c3ccccc3)C(=O)N2[C@H]1C(=O)O [Ampicillin, reference compound] | 0.03 (≈ 0.0859 µM) | – | 8 (≈ 22.9 µM) | 2 (≈ 5.72 µM) | – | – | – | 64 (≈ 183 µM) | – | – | 16 (≈ 45.8 µM) | 16 (≈ 45.8 µM) | 4 (≈ 11.4 µM) | 8 (≈ 22.9 µM) | – | 0.5 (≈ 1.43 µM) | 0.03 (≈ 0.0859 µM) | – | 16 (≈ 45.8 µM) | MIC (Strep. D): 4 µg/mL (≈ 11.4 µM)
8 | CC1=C(C(=O)O)N2C(=O)[C@@H](NC(=O)[C@H](N)c3cc4sccc4s3)[C@H]2SC1 [Ex. 1A, 7-D-(thieno[3,2-b]thien-2-yl)-glycylamido-3-methyl-3-cephem-4-carboxylic acid] | 0.25 (≈ 0.61 µM) | 2 (≈ 4.88 µM) | 16 (≈ 39.1 µM) | > 64 | > 64 | > 64 | 32 (≈ 78.1 µM) | 64 (≈ 156 µM) | 0.5 (≈ 1.22 µM) | > 64 | 8 (≈ 19.5 µM) | > 64 | > 64 | > 64 | > 64 | 64 (≈ 156 µM) | 1 (≈ 2.44 µM) | – | 2 (≈ 4.88 µM) | –
